# From patent US8853141B2, “Sulfomethylsuccinates, process for making same and compositions containing same” (Stepan Company, priority 2009, dated 2014)
# Experiment: Surface activity, K12 Krüss tensiometer, automatic titration for CMC
# Type: physicochemical
# Protocol: Surface activity was measured with a K12 Krüss tensiometer at 25° C. in deionized water. Automatic titration was used to determine the critical micelle concentration (CMC). No pH adjustment was made for the measurement.
substance,measurement,value
dodecyl sulfosuccinate,critical micelle concentration (CMC),about 120 mg/L
